Measured values taken from ChEMBL document CHEMBL4665804, “Characterization of SPK 98, a Torin2 analog, as ATR and mTOR dual kinase inhibitor” (Bioorg Med Chem Lett, 2020).
In brackets after ≈: the same amount, converted by molar mass. Activity calls are given as the source filed them. The calls are words filed in the database; no cut-off is given here.

What was measured:
[1] = target: Serine/threonine-protein kinase ATR (Homo sapiens) (UniProt Q13535); assay: Inhibition of ATR in human HCT116 cells assessed as decrease in Chk1 phosphorylation at Ser317 residue at 250 nM treated for 1 hr prior to UV-irradiation exposure and measured after 1 hr by Immunoblot analysis; type: cell-based; conditions: HCT-116, time 2.0 hrs
[2] = target: Serine/threonine-protein kinase ATR (Homo sapiens) (UniProt Q13535); assay: Inhibition of ATR in human HCT116 cells assessed as decrease in Chk1 phosphorylation at Ser317 residue by measuring decrease in foci formation at 50 nM treated for 1 hr prior to UV-irradiation exposure and measured after 1 hr by Immunofluorescence analysis; type: cell-based; conditions: HCT-116, time 2.0 hrs
HCT-116 [3] = assay: Growth inhibition of human HCT116 cells measured after 72 hrs by Celltiter-Glo assay; type: functional
[4] = target: Serine/threonine-protein kinase mTOR (Homo sapiens) (UniProt P42345); assay: Inhibition of mTOR in human HCT116 cells assessed as decrease in p70S6K phosphorylation at Thr389 residue at 250 nM treated for 1 hr prior to UV-irradiation exposure and measured after 1 hr by immunoblot analysis; type: cell-based; conditions: HCT-116, time 2.0 hrs
[5] = target: Serine/threonine-protein kinase mTOR (Homo sapiens) (UniProt P42345); assay: Inhibition of mTOR in human HCT116 cells assessed as decrease in p70S6K phosphorylation at Thr389 residue at 50 nM treated for 1 hr prior to UV-irradiation exposure and measured after 1 hr by immunoblot analysis; type: cell-based; conditions: HCT-116, time 2.0 hrs
[6] = target: T1, Serine-protein kinase ATM (Homo sapiens, UniProt Q13315); assay: Inhibition of ATM in human HCT116 cells assessed as decrease in gammaH2AX phosphorylation at Ser139 residue by measuring decrease in foci formation at 50 nM treated for 1 hr prior to UV-irradiation exposure and measured after 1 hr by immunofluorescence assay; type: cell-based; conditions: hct-116, 2 h, 0.05 µM
HeLa = assay: Growth inhibition of human HeLa cells measured after 72 hrs by Celltiter-Glo assay; type: functional
HCT-116 [7] = assay: Inhibition of ATR/mTOR in human HCT116 cells harboring ATM+/-p53+/+ gene allele assessed as premature chromatin condensation at 50 nM treated for 1 hr prior to UV-irradiation exposure and measured after 1 hr by DAPI staining based confocal microscopic method; type: cell-based; conditions: time 2.0 hrs
[8] = Stability in mouse liver microsomes assessed as proportion of drug metabolized measured after 30 mins; type: ADME, Microsome; conditions: read-out: Drug metabolism
[9] = Stability in rat liver microsomes assessed as proportion of drug metabolized measured after 30 mins; type: ADME, Microsome; conditions: read-out: Drug metabolism
[10] = Intrinsic clearance in human liver microsome; type: ADME; conditions: liver microsomes, read-out: CLH
[11] = target: T1, Serine-protein kinase ATM; assay: Inhibition of ATM in human HCT116 cells assessed as decrease in Chk2 phosphorylation at Thr68 residue by measuring decrease in foci formation at 50 nM treated for 1 hr prior to UV-irradiation exposure and measured after 1 hr by immunofluorescence assay; type: cell-based; conditions: hct-116, 2 h, 0.05 µM
[12] = Half life in human liver microsome; type: ADME; conditions: liver microsomes
[13] = Half life in mouse liver microsome; type: ADME; conditions: liver microsomes
[14] = Aqueous solubility of the compound; type: physicochemical
[15] = Half life in rat liver microsome; type: ADME; conditions: liver microsomes
[16] = Intrinsic clearance in rat liver microsome; type: ADME; conditions: liver microsomes, read-out: CLH
[17] = Intrinsic clearance in mouse liver microsome; type: ADME; conditions: liver microsomes, read-out: CLH
[18] = Stability in human liver microsomes assessed as proportion of drug metabolized measured after 30 mins; type: ADME, Microsome; conditions: read-out: Drug metabolism
[19] = Aqueous solubility of the compound relative to Torin2; type: physicochemical; conditions: buffer

Serine/threonine-protein kinase ATR (Homo sapiens), sequence (Q13535 whole entry, looked up): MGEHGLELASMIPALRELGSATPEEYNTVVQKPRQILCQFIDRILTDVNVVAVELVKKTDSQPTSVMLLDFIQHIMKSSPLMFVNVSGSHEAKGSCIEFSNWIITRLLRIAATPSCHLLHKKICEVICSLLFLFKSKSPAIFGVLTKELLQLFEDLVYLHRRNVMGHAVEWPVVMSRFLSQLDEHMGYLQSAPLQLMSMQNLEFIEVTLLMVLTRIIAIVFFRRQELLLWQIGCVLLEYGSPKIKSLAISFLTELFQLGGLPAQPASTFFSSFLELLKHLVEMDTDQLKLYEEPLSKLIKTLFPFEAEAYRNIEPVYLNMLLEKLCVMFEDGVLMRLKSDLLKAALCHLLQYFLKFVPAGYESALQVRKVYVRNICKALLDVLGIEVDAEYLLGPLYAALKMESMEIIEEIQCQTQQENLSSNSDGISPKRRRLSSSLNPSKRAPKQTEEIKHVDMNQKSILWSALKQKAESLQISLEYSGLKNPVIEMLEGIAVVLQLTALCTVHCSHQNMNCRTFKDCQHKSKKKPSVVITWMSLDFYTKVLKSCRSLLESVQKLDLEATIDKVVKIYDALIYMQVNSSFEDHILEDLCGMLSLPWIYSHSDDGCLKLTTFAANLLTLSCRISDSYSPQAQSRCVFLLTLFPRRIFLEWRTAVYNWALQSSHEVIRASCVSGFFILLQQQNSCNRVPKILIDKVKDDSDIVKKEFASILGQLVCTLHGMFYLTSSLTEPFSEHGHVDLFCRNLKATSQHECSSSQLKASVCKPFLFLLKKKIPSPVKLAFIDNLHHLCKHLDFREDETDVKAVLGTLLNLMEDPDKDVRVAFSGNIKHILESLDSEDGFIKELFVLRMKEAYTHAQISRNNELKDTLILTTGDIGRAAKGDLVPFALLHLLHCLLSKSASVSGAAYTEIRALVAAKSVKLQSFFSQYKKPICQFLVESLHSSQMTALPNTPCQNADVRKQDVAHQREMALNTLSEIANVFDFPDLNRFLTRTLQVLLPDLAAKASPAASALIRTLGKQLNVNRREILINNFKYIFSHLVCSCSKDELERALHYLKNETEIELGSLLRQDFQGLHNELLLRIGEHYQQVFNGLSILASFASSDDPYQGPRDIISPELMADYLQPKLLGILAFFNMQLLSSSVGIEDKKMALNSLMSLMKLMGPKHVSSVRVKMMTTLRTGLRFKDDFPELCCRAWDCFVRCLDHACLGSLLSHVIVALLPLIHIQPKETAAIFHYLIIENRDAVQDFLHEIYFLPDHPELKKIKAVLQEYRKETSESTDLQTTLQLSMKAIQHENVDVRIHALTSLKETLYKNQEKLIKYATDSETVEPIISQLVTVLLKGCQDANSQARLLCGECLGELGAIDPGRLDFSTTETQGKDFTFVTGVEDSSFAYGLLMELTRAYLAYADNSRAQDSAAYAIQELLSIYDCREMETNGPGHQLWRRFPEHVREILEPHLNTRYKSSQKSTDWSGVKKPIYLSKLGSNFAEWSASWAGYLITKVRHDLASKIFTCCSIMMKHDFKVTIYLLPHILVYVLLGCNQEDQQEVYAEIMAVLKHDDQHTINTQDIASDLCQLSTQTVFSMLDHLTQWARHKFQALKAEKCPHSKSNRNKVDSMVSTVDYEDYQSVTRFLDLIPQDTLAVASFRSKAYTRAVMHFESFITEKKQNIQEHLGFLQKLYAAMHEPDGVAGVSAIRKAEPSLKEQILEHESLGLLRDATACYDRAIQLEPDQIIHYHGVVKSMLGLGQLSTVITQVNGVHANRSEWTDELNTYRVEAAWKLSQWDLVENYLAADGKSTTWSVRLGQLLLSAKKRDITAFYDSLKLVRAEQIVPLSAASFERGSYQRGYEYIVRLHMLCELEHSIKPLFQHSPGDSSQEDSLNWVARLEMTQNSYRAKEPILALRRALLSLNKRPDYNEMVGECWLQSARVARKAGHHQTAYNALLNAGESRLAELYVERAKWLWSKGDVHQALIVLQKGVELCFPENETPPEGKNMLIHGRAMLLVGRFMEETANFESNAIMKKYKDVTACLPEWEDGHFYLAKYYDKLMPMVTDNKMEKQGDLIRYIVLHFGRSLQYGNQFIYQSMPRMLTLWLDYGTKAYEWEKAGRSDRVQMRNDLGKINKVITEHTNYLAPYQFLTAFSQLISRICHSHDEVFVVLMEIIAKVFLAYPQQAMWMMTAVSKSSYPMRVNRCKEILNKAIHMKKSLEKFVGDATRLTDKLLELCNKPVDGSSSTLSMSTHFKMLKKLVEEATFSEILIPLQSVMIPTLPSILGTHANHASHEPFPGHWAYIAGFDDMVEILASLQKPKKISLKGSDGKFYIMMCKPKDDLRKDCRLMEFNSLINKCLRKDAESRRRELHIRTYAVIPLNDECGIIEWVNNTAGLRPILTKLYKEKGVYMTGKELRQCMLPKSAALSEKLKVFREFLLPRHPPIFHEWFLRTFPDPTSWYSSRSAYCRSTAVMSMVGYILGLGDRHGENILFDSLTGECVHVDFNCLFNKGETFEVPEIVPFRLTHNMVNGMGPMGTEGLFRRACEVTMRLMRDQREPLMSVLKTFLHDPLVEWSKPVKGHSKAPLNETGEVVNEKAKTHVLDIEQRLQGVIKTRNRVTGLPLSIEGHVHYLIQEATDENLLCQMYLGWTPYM

Compound	inhibition [1]	inhibition [2]	GI50 (HCT-116 [3])	inhibition [4]	inhibition [5]	inhibition (INH) [6]	GI50 (HeLa)	metabolised at 0.5 h [8]	metabolised at 0.5 h [9]	microsomal CLint [10]	inhibition (INH) [11]	half-life [12]	half-life [13]	solubility [14]	half-life [15]	microsomal CLint [16]	microsomal CLint [17]	metabolised at 0.5 h [18]	fold change (FC) [19]	inhibition (HCT-116 [7])
CS(=O)(=O)Nc1ccc(-c2ccc3ncc4ccc(=O)n(-c5cccc(C(F)(F)F)c5)c4c3c2)cn1	Active		1420 nM		Active															
O=c1ccc2cnc3ccc(-c4ccc(N5CCOCC5)nc4)cc3c2n1-c1cccc(C(F)(F)F)c1	Active		800 nM		Active		330 nM													
O=c1ccc2cnc3ccc(-c4ccc(N5CCNCC5)nc4)cc3c2n1-c1cccc(C(F)(F)F)c1	100%	Active	56 nM		Active	Not Active	50.4 nM	11%	41%	44 µL/min/mg	Not Active	31 min	157 min	22 µM (≈ 11 µg/mL)	42 min	33 µL/min/mg	9 µL/min/mg	55%	10	Active

More lines, main results first:

inhibition [1]	inhibition [2]	GI50 (HCT-116 [3])	inhibition [4]	inhibition [5]	inhibition (INH) [6]	GI50 (HeLa)	metabolised at 0.5 h [8]	metabolised at 0.5 h [9]	microsomal CLint [10]	inhibition (INH) [11]	half-life [12]	half-life [13]	solubility [14]	half-life [15]	microsomal CLint [16]	microsomal CLint [17]	metabolised at 0.5 h [18]	fold change (FC) [19]	Compound	inhibition (HCT-116 [7])
Active	inactive	135 nM	Active	Active	Not Active	121 nM													Nc1cnc(-c2ccc3ncc4ccc(=O)n(-c5cccc(C(F)(F)F)c5)c4c3c2)cn1	
	Active	32.2 nM				98 nM													Nc1ccc(-c2ccc3ncc4ccc(=O)n(-c5cccc(C(F)(F)F)c5)c4c3c2)cn1	Active
